Test [1] has as its system TβR-III (type III TGF-β receptor, betaglycan). The test can be described thus: Sucrose density gradient analysis in Mv1Lu cells, TβR-III. The note with it: 100 μM, 0, 1, 4 and 24 hours. Type of test: cell-based, mink. The method, then:
Sucrose gradient ultracentrifugation and confocal microscopy were used to identify 15-HEPE induced microdomain translocation of TGF-β receptors by sucrose. Sucrose density gradient analysis of TGF-β receptors was conducted in the plasma membranes of Mv1Lu cells (mink lung epithelial cell) treated with 100 μM of 15-HEPE and an equal volume of DMSO (dimethyl sulfoxide) at 37° C. for 0, 1, 4, and 24 hours, and the cell lysates from these treated cells were subjected to sucrose density gradient ultracentrifugation. The sucrose gradient fractions were then analyzed by Western blot analysis using anti-TβR-I (type I TGF-β receptor), anti-TβR-II (type II TGF-β receptor), anti-TβR-III (type III TGF-β receptor, betaglycan), anti-EGFR (epidermal growth factor receptor), and anti-caveolin-1 antibodies. The lipid raft/caveolae, and non-lipid raft microdomain localization of TβR-I, TβR-II, TβR-III, EGFR and caveolin-1 in the plasma membrane of untreated cells or cells treated with 15-HEPE were assessed to determine the effects of 15-HEPE on the membrane microdomain localization of the TGF-β receptors. […]

Test [2] concerns TGF-β. As to the kind of experiment: BDL study: quantitative RT-PCR of liver, TGF-β. The note with it: BDL mice liver. Type of test: in vivo, C57BL/6J mice. On the procedure: (§1) Quantitative RT-PCR: Total ribonucleic acid (RNA) was extracted from liver samples using RNAiso (Takara Bio, Japan) according to the manufacturer's instructions. One μg of RNA was reverse-transcribed using a reaction mixture containing 4.4 mM magnesium chloride (MgCl2) (F. Hoffmann-La Roche, Switzerland), 40 U RNase inhibitor (Toyobo, Japan), 0.5 mM dNTP (Promega, USA), 6.28 μM random hexamer (Promega), 5× first strand buffer (Promega), 10 mM dithiothreitol (Invitrogen, USA) and 200 U MMLV-RT (Invitrogen) in a final volume of 20 μL. The reaction was carried out for 1 hour at 37° C., followed by 5 minutes at 99° C. Real-time PCR was performed using real-time PCR DICE and TB Green™ Premix Ex Taq™ II (Takara Bio). To calculate the relative mRNA expression level, the expression of each gene (α-SMA, TIMP-1, TGF-β and Collagen Type 1) was normalized to that of reference gene 36B4 (gene symbol: Rplp0). Information regarding the PCR-primer sets and the plate layout are described in Tables 8 and 9.

Test [3] relates to Collagen Type 1. As to the kind of experiment: BDL study: quantitative RT-PCR of liver, Collagen Type 1. Type of test: in vivo, C57BL/6J mice. The settings on record: BDL mice liver. On the procedure: as §1
The test system of test [4] is Collagen Type 1. The test can be described thus: UUO study: quantitative RT-PCR of kidney, Collagen Type 1. Type of test: in vivo, C57BL/6 mice. The settings on record: UUO mice kidney. On the procedure: as §1, with “from kidney” for “from liver”, “[…] (mM) of” for “4.4 mM”, “relative […] (mRNA)” for “relative mRNA”, “gene (e.g., α-SMA,” for “gene (α-SMA,”, “Tables 1” for “Tables 8”, “and 2.” for “and 9.”

Test [5] relates to BDL-operated mice. The test can be described thus: BDL study: Sirius red staining of liver sections, fibrosis area. Type of test: in vivo, C57BL/6J mice. The method, then: BDL Surgery: On Day 0 of the study, BDL surgery was performed under pentobarbital (Kyoritsu Seiyaku, Japan) anesthesia. The mouse's hair was first shaved, the abdominal cavity cut open, and the common bile duct was ligated twice with 7-0 surgical silk. The mouse's peritoneum and the skin were closed with sutures, and the mice were transferred to a clean cage (e.g., resting cage) until recovered from anesthesia. Sham operated mice had their common bile duct exposed but not ligated.
[…]: To visualize collagen deposition, Bouin's fixed liver sections were stained using picro-Sirius red solution (Waldeck, Germany). For quantitative analysis of fibrosis area, bright field images of Sirius red-stained sections were captured using a digital camera (DFC295, Leica, Germany) at 100-fold magnification, and the positive areas in 5 fields/section were measured using ImageJ software (National Institute of Health, USA).

[6] abbreviates: relative mRNA normalized to 36B4, 50 mg/kg PO QD Day 0-13.
Where [7] appears, read: relative mRNA normalized to 36B4, 250 mg/kg PO QD Day 0-13.
The mark [8] stands for this setting: relative mRNA normalized to 36B4, 500 mg/kg PO QD Day 0-13.

Molecules are shown by their SMILES. Entries after “also recorded” stand apart in the source; their conditions may differ.

As for `CC/C=C\CC(O)/C=C/C=C\C/C=C\C/C=C\CCCC(=O)O` (stereo not shown) [DS102, 15-hydroxy-eicosa-5Z,8Z,11Z,13E,17Z-pentaenoic acid], the “localization and abundance of TβR-III” value in test [1] is “did not change the localization and abundance”. The “TGF-β mRNA expression level compared with the Vehicle group” value in test [2] (500 mg/kg) is given as “significant decrease”. For the same molecule, the “TGF-β mRNA expression level vs Vehicle group” value in test [2] (DS102 treatment groups) is recorded as “no significant differences”. Also, the TGF-β gene expression in test [2] (setting [6]) was 1.48 ± 0.48; in test [2] (setting [7]), 1.50 ± 0.44; in test [2] (setting [8]), 1.00 ± 0.23. Also, in test [3] (500 mg/kg), the “Collagen Type 1 mRNA expression level compared with the Vehicle group” value is on record as “tended to decrease; also recorded: trend approaching significance”. Moreover, the “Collagen Type 1 mRNA expression level vs Vehicle group” value in test [3] (DS102 treatment groups) is listed as “no significant differences”. Also, the “Collagen Type 1 gene expression” value in test [3] (setting [6]) is given as 4.94 ± 2.76; in test [3] (setting [7]) it was 4.21 ± 1.90; in test [3] (setting [8]) it was 2.51 ± 1.39; in test [4] (setting [6]), 11.80 ± 1.78; in test [4] (setting [8]), 14.09 ± 2.88. Besides, the “fibrosis area compared with the Vehicle group” value in test [5] (BDL mice liver, 500 mg/kg) is recorded as “tended to decrease; also recorded: trend approaching significance”; in test [5] (BDL mice, liver, 50 mg/kg) it was “no significant difference”; in test [5] (BDL mice, liver, 250 mg/kg) it was “significant decrease”. The Sirius red-positive area in test [5] (BDL mice, liver, 50 mg/kg PO QD Day 0-13, Day 14) turned out to be 1.70 ± 0.63%; in test [5] (BDL mice, liver, 250 mg/kg PO QD Day 0-13, Day 14) it was 1.06 ± 0.48%; in test [5] (BDL mice, liver, 500 mg/kg PO QD Day 0-13, Day 14), 1.42 ± 0.60%.

Source of the values: patent US20200360331A1, “COMPOSITIONS COMPRISING 15-HEPE AND/OR 15-HETrE AND METHODS OF TREATING OR PREVENTING CARDIOMETABOLIC DISEASE, METABOLIC SYNDROME, AND/OR RELATED DISEASES” (Afimmune Limited, priority 2019, published 2020).
